Experiment: log P by HPLC on reversed-phase column (C18), EEC Directive 79/831 Annex V.A8
Assay type: physicochemical
Conditions: C18, 40° C.
Method: The log P data were determined in accordance with the EEC Directive 79/831 Annex V.A8 by HPLC (High Performance Liquid Chromatography) on a reversed-phase column (C18) using the following methods: […]
Calibration was carried out with the help of unbranched alkan-2-ones (consisting of 3 to 13 or 16 carbon atoms) with known logP values (determination of the logP values via the retention times by means of linear interpolation between two subsequent alkanones).

log p acidic | log p neutral (neutral) | Structure (SMILES)
2.35 | 4.5 | COc1cc(Oc2ccc(Cl)c(C(F)(F)F)c2)c(OC)cc1N=CN(C)C(C)C [compound 987]
1.76 |  | COc1cc(-c2ccc(C)cc2)c(OC)cc1N=CN(C)C [compound 998]
1.89 |  | CCN(C)C=Nc1cc(OC)c(-c2ccc(C)cc2)cc1OC [compound 999]

From US20100113276A1, “USE OF N2-PHENYLAMIDINES AS HERBICIDES” (BAYER CROPSCIENCE AG, priority 2007, published 2010)
